# System: functional O-mannosylation of α-DG on cell surfaces (CHO, C2C12, HSMB, FKRPD cells)
# Assay: Immuno-fluorescent staining with IIH6 antibody after compound treatment (FIG. 1)
# Format: cell-based, Chinese hamster, mouse, human
# Settings: FKRPD cells in 96 well-plates, series of concentrations, 48 hours
# Description: The Chinese hamster ovary (CHO), mouse myoblasts (C2C12), normal human myoblasts (HSMB), human FKRP deficient myoblasts (FKRPD) were grown in 96 well-plates and treated with the compound at a series concentrations for 48 hours. The cells were examined with immuno-fluorescent staining using the IIH6 antibody that recognize the FOG of α-DG as the primary antibody followed by an appropriate secondary antibody conjugated with fluorophore. The detailed protocol is described in experiment section below.
# (§1) Protein glycosylation is a multiple-step process that requires a large number of proteins in the secretory pathway of the cells. Thus we chose cell-based assay because our goal is to identify enhancer the FOG of α-DG on the cell surfaces. The assay system is HTS/HCS friendly and can adapt to various cell lines including myotubes as well as various readout methods including AlphaScreen, fluorescence density and HCS/fluorescence imaging. The standard operation protocol (SOP) for adhesion cells is described below and the FIG. 1 illustrates the assay process using myoblasts as the controls and screening cells and the IIH6 antibody as the probe. Other adhesion cells such CHO (Chinese hamster ovary) cell line can be implemented into this assay by simply removing the differentiation step.
# The cells were fixed, permeablized, and then blocked with 10% BSA in PBS for 1 hour. […]
row,Structure (SMILES),enhancement of the functional O-mannosylation of α-DG on cell surfaces
1,"CCC(c1nnnn1Cc1cccs1)N1CCN(c2nc3cc(N)cc(F)c3s2)CC1 (stereo not drawn) [Compound 46, 5-amino-7-fluoro-2-(4-(1-(1-(thiophen-2-ylmethyl)-1H-tetrazol-5-yl)propyl)piperazin-1-yl)benzothiazole]",dose-dependent enhancement

# System: FOG of α-DG on the cell surfaces
# Assay: Cell-based HTS/HCS assay, IIH6 antibody as probe (EC1.5)
# Settings: concentration of the compound required to enhance the FOG of α-DG by 50% over the controls; cell-based assays in vitro
# Excerpt: as §1
# Cell cultures: All cells are cultured at 37° C., 5% CO2, in appropriate media (F-12 for epithelial cells and DMEM for myoblasts) supplement with 10-20% fetal calf serum (FCS) and 1% antibiotics. […] The cells will be detached with trypsin EDTA and suspended in the cell culture media. The cells will be counted and seeded into the multiple-well plates as desired. Myotubes formation: When the myoblasts reach confluence, change the growth media to differential media (DEME with 2% horse serum) and incubate for 4-5 days.
# The cells were fixed, permeablized, and then blocked with 10% BSA in PBS for 1 hour. […] After washing the cells with PBS for 2 times, the DAPI was used to stain the cells for 15 mins and wash 3 times with PBS. The images were captured with an inverted Olympus fluorescent microscope. For small compound localization experiment, the cells are incubated with the biotin conjugated compounds and then the cells were washed and incubated with streptavidin-Dye and then images will be captured to see the location of the compound-target-protein.
# H, EC1.5<5 μM; M, EC1.5-20 μM; L, EC1.5 20-50 μM; VL, EC1.5>50 μM.
row,Structure (SMILES),Activity (EC1.5)
1,"CCC(c1nnnn1Cc1cccs1)N1CCN(c2nc3cc(N)cc(F)c3s2)CC1 (stereo not drawn) [Compound 46, 5-amino-7-fluoro-2-(4-(1-(1-(thiophen-2-ylmethyl)-1H-tetrazol-5-yl)propyl)piperazin-1-yl)benzothiazole]",H (EC1.5<5 μM)
2,"CCC(c1nnnn1Cc1cccs1)N1CCN(c2nc3cc(OC)c(OC)c(OC)c3s2)CC1 (stereo not drawn) [Compound 20, 5.6.7-trimethaxy-2-(4-(1-(1-(thiophen-2-ylmethyl)-1H-tetrarol-5-yl)propyl)piperazin-1-yl)benzothiazole]",M (EC1.5-20 μM)
3,"CCC(c1nnnn1Cc1cccs1)N1CCN(c2nc3cc(F)ccc3s2)CC1 (stereo not drawn) [Compound 25, 5-fluoro-2-(4-(1-(1-(thiophen-2-ylmethyl)-1H-tetrazol-5-yl)propyl)piperazin-1-yl)benzothiazole]",L (EC1.5 20-50 μM)
4,"CCC(c1nnnn1Cc1cccs1)N1CCN(c2nc3c(F)c(N)ccc3s2)CC1 (stereo not drawn) [Compound 47, 5-amino-4-fluoro-2-(4-(1-(1-(thiophen-2-ylmethyl)-1H-tetrazol-5-yl)propyl)piperazin-1-yl)benzothiazole]",H (EC1.5<5 μM)
5,"CCC(c1nnnn1CCc1ccns1)N1CCN(c2nc3cc(N)cc(F)c3s2)CC1 (stereo not drawn) [Compound 74, 5-amino-7-fluoro-2-(4-(1-(1-(isothiazol-5-ylethyl)-1H-tetrazol-5-yl)propyl)piperazin-1-yl)benzothiazole]",H (EC1.5<5 μM)
6,"CCC(c1nnnn1Cc1cccs1)N1CCN(c2nc3ccccc3o2)CC1 (stereo not drawn) [Compound 7, 2-(4-(1-(1-(thiophen-2-ylmethyl)-1H-tetrazol-5-yl)propyl)piperazin-1-yl)benzoxazole]",M (EC1.5-20 μM)
7,"c1csc(Cn2nncc2CN2CCN(c3nc4ccccc4s3)CC2)c1 [Compound 1, 2-(4-((1-(thiophen-2-ylmethyl)-1H-1,2,3-triazol-5-yl)methyl)piperazin-1-yl)benzothiazole]",L (EC1.5 20-50 μM)
8,"CCC(c1nnnn1CCc1cccs1)N1CCN(C2Sc3c(F)cc(N)cc3N2[N+](=O)[O-])CC1 (stereo not drawn) [Compound 62, 5-amino-7-fluoro-3-nitro-2-(4-(1-(1-(thiophen-2-ylethyl)-1H-tetrazol-5-yl)propyl)piperazin-1-yl)benzothiazole]",H (EC1.5<5 μM)
9,"CCC(c1nnnn1Cc1cccs1)N1CCN(Cc2nc3ccccc3s2)CC1 (stereo not drawn) [Compound 43, 2-((4-(1-(1-(thiophen-2-ylmethyl)-1H-tetrazol-5-yl)propyl)piperazin-1-yl)methyl)benzothiazole]",L (EC1.5 20-50 μM)
10,"CCC(c1nnnn1Cc1cccs1)N1CCN(c2nc3c([N+](=O)[O-])cccc3s2)CC1 (stereo not drawn) [Compound 22, 4-nitro-2-(4-(1-(1-(thiophen-2-ylmethyl)-1H-tetrazol-5-yl)propyl)piperazin-1-yl)benzothiazole]",L (EC1.5 20-50 μM)
11,"CCC(c1nnnn1CCc1cccs1)N1CCCN(c2nc3cc(N)cc(F)c3s2)CC1 (stereo not drawn) [Compound 75, 5-amino-7-fluoro-2-(4-(1-(1-(thiophen-2-ylethyl)-1H-tetrazol-5-yl)propyl)1,4-diazepane-1-yl)benzothiazole]",H (EC1.5<5 μM)
12,"CCC(c1nnnn1Cc1ccc(F)s1)N1CCN(c2nc3cc(N)cc(F)c3s2)CC1 (stereo not drawn) [Compound 57, 5-amino-7-fluoro-2-(4-(1-(1-(5-fluoro-thiophen-2-ylmethyl)-1H-tetrazol-5-yl)propyl)piperazin-1-yl)benzothiazole]",H (EC1.5<5 μM)
13,"CC(c1nnnn1Cc1cccs1)N1CCN(c2nc3ccccc3s2)CC1 (stereo not drawn) [Compound 3, 2-(4-(1-(1-(thiophen-2-ylmethyl)-1H-tetrazol-5-yl)ethyl)piperazin-1-yl)benzothiazole]",M (EC1.5-20 μM)
14,"CCC(c1nnnn1Cc1ccc(C)s1)N1CCN(c2nc3cc(N)cc(F)c3s2)CC1 (stereo not drawn) [Compound 56, 5-amino-7-fluoro-2-(4-(1-(1-(5-methyl-thiophen-2-ylmethyl)-1H-tetrazol-5-yl)propyl)piperazin-1-yl)benzothiazole]",H (EC1.5<5 μM)

# Reference: patent US10221168B1, “Small-compound enhancers for functional O-mannosylation of alpha-dystroglycan, and uses thereof” (priority 2015, dated 2019)
